This note sets out measurements from patent US9029399B2, “17α-hydroxylase/C17,20-lyase inhibitors” (Novartis AG, priority 2011, dated 2015).

The target of assay [1] is Human CYP17 enzyme (Cytochrome P450, 17-20 lyase) (Homo sapiens (Human), UniProt P05093). The assay can be described thus: CYP17 lyase assay, recombinant human CYP17 enzyme, 17-α-hydroxy pregnenolone [21-3H] substrate. Format: biochemical. As to conditions: recombinant human CYP17, first value of Human/Rat cell; read-out: Lyase IC 50 Human. The source says: 1) Cvtochrome P450, 17-20 Lyase (CYP17-Lyase) Assay Development Using Recombinant Human CYP17 Enzyme and 17-α-Hydroxy Pregnenolone [21-3H] as the Substrate
Cytochrome P450, 17-α-Hydroxylase, 17-20 lyase (CYP17) is a multi functional enzyme that plays a key role in the biosynthesis of steroid hormones. […] In the hydroxylation reaction, it converts progesterone and pregnenolone to the corresponding hydroxylated products 17-α-hydroxy progesterone and 17-α-hydroxy pregnenolone. In the lyase reaction, it catalyzes the conversion of these hydroxylated substrates to Androstenedione and Dehydroepiandrosterone (DHEA) respectively. In the Cyp17 lyase assay described here, the conversion of 17-α-hydroxy pregnenolone to Dehydroepiandrosterone and acetic acid is being monitored.
The conversion of 17-α-hydroxy pregnenolone to Dehydroepiandrosterone is accompanied by the release of acetic acid. In the Cyp17 lyase assay, 17-α-hydroxy pregnenolone labeled with tritium (3H) at position 21 is used as the substrate. Chloroform extraction removes the radioactive steroids and acetic acid is taken into aqueous layer. The tritiated acetic acid released in the assay thus extracted is quantified to determine the enzyme activity.
Human Cyp 17 gene was cloned and expressed in Adenoviral expression system in A549 cell lines. The purified cell membrane preparations were used as the source for Human CYP17 enzyme. Total protein concentration: 8 mg/mL.
For routine screening, the assay was set up with 16 μg of enzyme in 50 μL reaction volume. 17α-hydroxy pregnenolone [21-3H] was added to a final concentration of […] NADPH is used at a final concentration of 4.2 mM. Total reaction volume was made up to 50 μL with 50 mM Phosphate buffer pH 7.5. The reaction mixture was incubated at room temperature for 90 minutes with gentle shaking. The reaction was stopped by the addition of 100 μl, of buffer. 500 μl, of 5% freshly prepared activated charcoal was added to the solution and mixed well by vortexing. The samples were centrifuged at 17568×g for 5 minutes. (14000 rpm). The supernatant was carefully transferred to fresh tube and 1.3 mL of scintillation fluid was added, mixed by vortexing.
The measurements were carried out in 2.0 mL Eppendorf™ tubes. Each tube was counted for 1 minute. The amount of tritiated acetic acid released is proportional to the lyase activity. Percent lyase activity in presence of inhibitor was calculated using the formula given below.
[formula] Sample: Enzyme reaction in presence of inhibitor. Positive control: Enzyme reaction without inhibitor but containing DMSO at 1% final concentration. Blank—Contains all reagents except enzyme. % Inhibition=100%−% Lyase activity
For IC50 determination, the % inhibition was plotted as a function of inhibitor concentration. The data was fitted to sigmoidal equation using Graphpad Prism® software IV to generate IC50 values.

The next assay addresses Rat CYP 17 Lyase (Rattus norvegicus (Rat), UniProt P11715). Kind of assay: Rat CYP17 lyase model, rat testes microsomes. Format: biochemical. As to conditions: substrate 0.5 μM, second value of Human/Rat cell, read-out: Lyase IC 50 Rat. The procedure: For the Rat CYP 17 Lyase Model:
The same procedure described above was used but using rat testes microsomes as the source and with a substrate concentration of 0.5 μM.

Sequence of Rat CYP 17 Lyase (P11715 whole entry): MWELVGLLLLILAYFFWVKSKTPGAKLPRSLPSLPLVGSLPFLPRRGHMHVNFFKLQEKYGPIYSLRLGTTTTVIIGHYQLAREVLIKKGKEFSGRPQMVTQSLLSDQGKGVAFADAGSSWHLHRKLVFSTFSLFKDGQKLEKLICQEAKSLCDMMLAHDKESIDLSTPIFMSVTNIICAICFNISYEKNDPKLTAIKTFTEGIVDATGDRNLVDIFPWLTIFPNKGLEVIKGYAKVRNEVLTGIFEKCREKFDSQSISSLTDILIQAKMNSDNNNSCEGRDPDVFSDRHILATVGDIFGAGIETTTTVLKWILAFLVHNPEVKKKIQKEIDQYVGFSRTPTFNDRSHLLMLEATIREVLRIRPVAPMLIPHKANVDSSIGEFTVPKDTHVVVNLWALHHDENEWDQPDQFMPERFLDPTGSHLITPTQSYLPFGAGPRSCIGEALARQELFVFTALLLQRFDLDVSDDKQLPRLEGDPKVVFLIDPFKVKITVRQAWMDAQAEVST
Sequence of Human CYP17 enzyme (Cytochrome P450, 17-20 lyase) (P05093 whole entry): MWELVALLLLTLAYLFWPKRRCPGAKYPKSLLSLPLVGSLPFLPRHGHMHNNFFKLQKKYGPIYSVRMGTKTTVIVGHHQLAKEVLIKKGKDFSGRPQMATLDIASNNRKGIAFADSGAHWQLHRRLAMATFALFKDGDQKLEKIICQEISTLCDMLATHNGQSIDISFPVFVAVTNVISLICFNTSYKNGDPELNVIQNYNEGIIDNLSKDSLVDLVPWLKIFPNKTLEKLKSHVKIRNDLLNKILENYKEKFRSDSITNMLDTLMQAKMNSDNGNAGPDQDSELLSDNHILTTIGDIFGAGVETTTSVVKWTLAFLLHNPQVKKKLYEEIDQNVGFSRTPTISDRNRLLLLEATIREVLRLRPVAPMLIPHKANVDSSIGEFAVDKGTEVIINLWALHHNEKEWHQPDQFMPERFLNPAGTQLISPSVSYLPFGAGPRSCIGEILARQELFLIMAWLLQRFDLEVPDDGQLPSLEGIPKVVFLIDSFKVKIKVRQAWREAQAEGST

As for `O=C1N(c2ccnc(C(F)(F)F)c2)CCN1c1cnccc1C1CC1` [Example 2A, 1-(4-cyclopropylpyridin-3-yl)-3-(2-(trifluoromethyl)pyridin-4-yl)imidazolidin-2-one], the values for the IC50 (in assay [1]; on Rat CYP 17 Lyase) were 9 nM and 1.1 nM, respectively.

As to `COc1cc(N2CCN(c3cnccc3C3CC3)C2=O)ccn1` [Example 9A, 1-(4-cyclopropylpyridin-3-yl)-3-(2-methoxypyridin-4-yl)imidazolidin-2-one], the IC50 was 42 nM in assay [1] and 4.6 nM at Rat CYP 17 Lyase.

In the case of `O=C1N(c2cnccc2C2CC2)[C@@H]2C[C@@H]2N1c1ccnc(C(F)(F)F)c1` [Example 32A-II, (1R,5S)-2-(4-cyclopropylpyridin-3-yl)-4-(2-(trifluoromethyl)pyridin-4-yl)-2,4-diazabicyclo[3.1.0]hexan-3-one], the IC50 in assay [1] was 6.9 nM; on Rat CYP 17 Lyase it was 3 nM.
